Reference: ChEMBL document CHEMBL1201861, “Genomics of Drug Sensitity in Cancer screening data, Wellcome Trust Sanger Institute”

Tests used:
Test in all cases: cells
LoVo = type: functional, cell-based; conditions: Homo sapiens;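 further: growth inhibition of human LoVo cells, read out with a cell viability assay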
Description: SANGER: Inhibition of human LoVo cell growth in a cell viability assay.

NCI-H226 = type: functional, cell-based, Homo sapiens; conditions: Homo sapiens, NCI-H226;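 further: cell viability read-out used to gauge growth inhibition of the cells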
Description: SANGER: Inhibition of human NCI-H226 cell growth in a cell viability assay.

HGC-27 = type: functional, cell-based, Homo sapiens; conditions: Homo sapiens, HGC-27;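 further: growth inhibition of human HGC-27 cells, read out in a cell viability assay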
Description: SANGER: Inhibition of human HGC-27 cell growth in a cell viability assay.

HN = type: functional, cell-based, Homo sapiens; conditions: Homo sapiens, HN
Description: SANGER: Inhibition of human HN cell growth in a cell viability assay.

GP5d = type: functional, cell-based, Homo sapiens; conditions: Homo sapiens, GP5d;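 further: growth inhibition of human GP5d cells, read out with a cell viability assay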
Description: SANGER: Inhibition of human GP5d cell growth in a cell viability assay.

HT = type: functional, cell-based; conditions: Homo sapiens
Description: SANGER: Inhibition of human HT cell growth in a cell viability assay.

OS-RC-2 = type: functional, cell-based, Homo sapiens; conditions: Homo sapiens, OS-RC-2;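 further: growth inhibition of human OS-RC-2 cells, measured by a cell viability assay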
Description: SANGER: Inhibition of human OS-RC-2 cell growth in a cell viability assay.

GI-ME-N = type: functional, cell-based, Homo sapiens; conditions: Homo sapiens, GI-ME-N;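 further: growth inhibition of human GI-ME-N cells, read out with a cell viability assay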
Description: SANGER: Inhibition of human GI-ME-N cell growth in a cell viability assay.

SK-N-FI = type: functional, cell-based, Homo sapiens; conditions: Homo sapiens, SK-N-FI;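 further: cell viability assay measuring growth inhibition of human SK-N-FI cells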
Description: SANGER: Inhibition of human SK-N-FI cell growth in a cell viability assay.

CAL-12T = type: functional, cell-based, Homo sapiens; conditions: Homo sapiens, CAL-12T;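 further: growth inhibition of human CAL-12T cells, read out with a cell viability assay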
Description: SANGER: Inhibition of human CAL-12T cell growth in a cell viability assay.

RMG-I = type: functional, cell-based, Homo sapiens; conditions: Homo sapiens, RMG-I;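 further: growth inhibition of human RMG-I cells, read out with a cell viability assay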
Description: SANGER: Inhibition of human RMG-I cell growth in a cell viability assay.

GOTO = type: functional, cell-based, Homo sapiens; conditions: Homo sapiens, GOTO;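 further: growth inhibition of GOTO cells, read out by a cell viability assay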
Description: SANGER: Inhibition of human GOTO cell growth in a cell viability assay.

C-33-A = type: functional, cell-based, Homo sapiens; conditions: Homo sapiens, C-33-A;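 further: cell viability assay measuring growth inhibition of C-33-A cells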
Description: SANGER: Inhibition of human C-33-A cell growth in a cell viability assay.

OVCAR-3 = type: functional, cell-based, Homo sapiens; conditions: Homo sapiens, OVCAR-3;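 further: growth inhibition of human OVCAR-3 cells, determined by a cell viability assay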
Description: SANGER: Inhibition of human OVCAR-3 cell growth in a cell viability assay.

TCC-SUP = type: functional, cell-based, Homo sapiens; conditions: Homo sapiens, TCC-SUP;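 further: growth inhibition of TCC-SUP cells, read out with a cell viability assay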
Description: SANGER: Inhibition of human TCCSUP cell growth in a cell viability assay.

NEC8 = type: functional, cell-based, Homo sapiens; conditions: Homo sapiens, NEC8;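 further: growth inhibition of human NEC8 cells, read out by a cell viability assay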
Description: SANGER: Inhibition of human NEC8 cell growth in a cell viability assay.

HuO-3N1 = type: functional, cell-based, Homo sapiens; conditions: Homo sapiens, HuO-3N1;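 further: cell viability readout used to measure how strongly compounds suppress proliferation of human HuO-3N1 cells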
Description: SANGER: Inhibition of human HuO-3N1 cell growth in a cell viability assay.

ASPC1 = type: functional, cell-based, Homo sapiens; conditions: Homo sapiens, ASPC1;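 further: growth inhibition of AsPC-1 cells, read out with a cell viability assay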
Description: SANGER: Inhibition of human AsPC-1 cell growth in a cell viability assay.

CAL-51 = type: functional, cell-based, Homo sapiens; conditions: Homo sapiens, CAL-51;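 further: human CAL-51 cell line, growth inhibition read out via a cell viability assay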
Description: SANGER: Inhibition of human CAL-51 cell growth in a cell viability assay.

IA-LM = type: functional, cell-based, Homo sapiens; conditions: Homo sapiens, IA-LM;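 further: cell viability assay measuring growth inhibition of human IA-LM cells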
Description: SANGER: Inhibition of human IA-LM cell growth in a cell viability assay.

KP-N-YN = type: functional, cell-based; conditions: Homo sapiens;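 further: growth inhibition of KP-N-YN cells, read out with a cell viability assay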
Description: SANGER: Inhibition of human KP-N-YN cell growth in a cell viability assay.

MEG-01 = type: functional, cell-based; conditions: Homo sapiens;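 further: growth inhibition of MEG-01 cells, read out by a cell viability assay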
Description: SANGER: Inhibition of human MEG-01 cell growth in a cell viability assay.

TE-9 = type: functional, cell-based, Homo sapiens; conditions: Homo sapiens, TE-9;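 further: cell growth inhibition, measured with a cell viability readout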
Description: SANGER: Inhibition of human TE-9 cell growth in a cell viability assay.

NB7 = type: functional, cell-based; conditions: Homo sapiens;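 further: growth inhibition of NB7 cells, read out with a cell viability assay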
Description: SANGER: Inhibition of human NB7 cell growth in a cell viability assay.

NCI-H2030 = type: functional, cell-based, Homo sapiens; conditions: Homo sapiens, NCI-H2030;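 further: growth inhibition of human NCI-H2030 cells, read out by a cell viability assay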
Description: SANGER: Inhibition of human NCI-H2030 cell growth in a cell viability assay.

KYSE-450 = type: functional, cell-based; conditions: Homo sapiens;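 further: cell growth inhibition measured by a viability assay in human KYSE-450 cells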
Description: SANGER: Inhibition of human KYSE-450 cell growth in a cell viability assay.

U2OS = type: functional, cell-based, Homo sapiens, U-2-OS; conditions: Homo sapiens, U2OS;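 further: growth inhibition of human U-2-OS cells, determined with a cell viability assay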
Description: SANGER: Inhibition of human U-2-OS cell growth in a cell viability assay.

MOLT-4 = type: functional, cell-based; conditions: Homo sapiens;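 further: growth inhibition of MOLT-4 cells, determined with a cell viability readout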
Description: SANGER: Inhibition of human MOLT-4 cell growth in a cell viability assay.

HMV-2 cell line = type: functional, cell-based, Homo sapiens; conditions: Homo sapiens, HMV-2;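 further: growth inhibition of HMV-II cells, read out with a cell viability assay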
Description: SANGER: Inhibition of human HMV-II cell growth in a cell viability assay.

KE-37 = type: functional, cell-based; conditions: Homo sapiens;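 further: growth inhibition of KE-37 cells, read out with a cell viability assay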
Description: SANGER: Inhibition of human KE-37 cell growth in a cell viability assay.

LU-139 = type: functional, cell-based; conditions: Homo sapiens
Description: SANGER: Inhibition of human LU-139 cell growth in a cell viability assay.

RT-112 = type: functional, cell-based, Homo sapiens; conditions: Homo sapiens, RT-112
Description: SANGER: Inhibition of human RT-112 cell growth in a cell viability assay.

NCI-H2052 = type: functional, cell-based, Homo sapiens; conditions: Homo sapiens, NCI-H2052;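 further: growth inhibition of NCI-H2052 cells, read out with a cell viability assay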
Description: SANGER: Inhibition of human NCI-H2052 cell growth in a cell viability assay.

PSN1 = type: functional, cell-based, Homo sapiens; conditions: Homo sapiens, PSN1;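 further: suppression of growth of human PSN1 cells, read out by a cell viability assay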
Description: SANGER: Inhibition of human PSN1 cell growth in a cell viability assay.

HCC1395 = type: functional, cell-based, Homo sapiens; conditions: Homo sapiens, HCC1395;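 further: growth inhibition of HCC1395 cells, read out by a cell viability assay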
Description: SANGER: Inhibition of human HCC1395 cell growth in a cell viability assay.

U-251 = type: functional, cell-based, Homo sapiens; conditions: Homo sapiens, U-251;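 further: growth inhibition of human U-251 cells, read out through a cell viability assay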
Description: SANGER: Inhibition of human U251 cell growth in a cell viability assay.

COR-L23 = type: functional, cell-based, Homo sapiens; conditions: Homo sapiens, COR-L23;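 further: cell viability assay measuring how strongly compounds suppress growth of COR-L23 cells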
Description: SANGER: Inhibition of human COR-L23 cell growth in a cell viability assay.

EW-11 = type: functional, cell-based, Homo sapiens; conditions: Homo sapiens, EW-11;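 further: growth inhibition of human EW-11 cells, measured with a cell viability assay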
Description: SANGER: Inhibition of human EW-11 cell growth in a cell viability assay.

VA-ES-BJ = type: functional, cell-based, Homo sapiens; conditions: Homo sapiens, VA-ES-BJ;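 further: growth inhibition of the VA-ES-BJ cell line, read out by a cell viability assay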
Description: SANGER: Inhibition of human VA-ES-BJ cell growth in a cell viability assay.

PC-14 = type: functional, cell-based, Homo sapiens; conditions: Homo sapiens, PC-14;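 further: cell viability assay measuring inhibition of PC-14 cell growth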
Description: SANGER: Inhibition of human PC-14 cell growth in a cell viability assay.

SAS = type: functional, cell-based, Homo sapiens; conditions: Homo sapiens, SAS;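 further: growth inhibition of SAS cells, read out with a cell viability assay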
Description: SANGER: Inhibition of human SAS cell growth in a cell viability assay.

COLO-679 = type: functional, cell-based, Homo sapiens; conditions: Homo sapiens, COLO-679
Description: SANGER: Inhibition of human COLO-679 cell growth in a cell viability assay.

CTV-1 = type: functional, cell-based; conditions: Homo sapiens;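 further: growth inhibition of the cell line, read out with a cell viability assay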
Description: SANGER: Inhibition of human CTV-1 cell growth in a cell viability assay.

GMS-10 = type: functional, cell-based, Homo sapiens; conditions: Homo sapiens, GMS-10;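 further: growth inhibition of GMS-10 cells, read out as cell viability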
Description: SANGER: Inhibition of human GMS-10 cell growth in a cell viability assay.

NCI-H2170 = type: functional, cell-based, Homo sapiens; conditions: Homo sapiens, NCI-H2170;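 further: cell viability assay measuring growth inhibition of human NCI-H2170 cancer cells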
Description: SANGER: Inhibition of human NCI-H2170 cell growth in a cell viability assay.

DEL = type: functional, cell-based; conditions: Homo sapiens;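 further: growth inhibition of the human DEL cell line, read out with a cell viability assay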
Description: SANGER: Inhibition of human DEL cell growth in a cell viability assay.

DU-145 = type: functional, cell-based, Homo sapiens; conditions: Homo sapiens, DU-145
Description: SANGER: Inhibition of human DU-145 cell growth in a cell viability assay.

NCI-H2452 = type: functional, cell-based, Homo sapiens; conditions: Homo sapiens, NCI-H2452;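 further: growth inhibition of NCI-H2452 cells, read out with a cell viability assay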
Description: SANGER: Inhibition of human NCI-H2452 cell growth in a cell viability assay.

DOK = type: functional, cell-based, Homo sapiens; conditions: Homo sapiens, DOK;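 further: cell viability assay read-out, values reflect inhibition of cell growth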
Description: SANGER: Inhibition of human DOK cell growth in a cell viability assay.

NCI-H810 = type: functional, cell-based, Homo sapiens; conditions: Homo sapiens, NCI-H810;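 further: IC50 reflects inhibition of cancer cell line growth, read out with a cell viability assay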
Description: SANGER: Inhibition of human NCI-H810 cell growth in a cell viability assay.

NCI-H720 = type: functional, cell-based; conditions: Homo sapiens;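 further: growth inhibition of human NCI-H720 cells determined by a cell viability assay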
Description: SANGER: Inhibition of human NCI-H720 cell growth in a cell viability assay.

For `O=C(c1cc(Cc2n[nH]c(=O)c3ccccc23)ccc1F)N1CCN(C(=O)C2CC2)CC1` [OLAPARIB], the IC50 (LoVo) was > 5 µM, the IC50 (NCI-H226) was > 5 µM and the IC50 (HGC-27) was > 5 µM. The IC50 (HN) was > 5 µM, the IC50 (GP5d) was > 5 µM and the IC50 (HT) was > 5 µM. The IC50 (OS-RC-2) was > 5 µM, the IC50 (GI-ME-N) was > 5 µM and the IC50 (SK-N-FI) was > 5 µM. The IC50 (CAL-12T) was > 5 µM, the IC50 (RMG-I) was > 5 µM and the IC50 (GOTO) was > 5 µM. The IC50 (C-33-A) was > 5 µM, the IC50 (OVCAR-3) was > 5 µM and the IC50 (TCC-SUP) was > 5 µM. For the same molecule, the IC50 (NEC8) was > 5 µM, the IC50 (HuO-3N1) was > 5 µM and the IC50 (ASPC1) was > 5 µM. The IC50 (CAL-51) was > 5 µM, the IC50 (IA-LM) was > 5 µM and the IC50 (KP-N-YN) was > 5 µM. The IC50 (MEG-01) was > 5 µM, the IC50 (TE-9) was > 5 µM and the IC50 (NB7) was > 5 µM. For the same molecule, the IC50 (NCI-H2030) was > 5 µM, the IC50 (KYSE-450) was > 5 µM and the IC50 (U2OS) was > 5 µM. The IC50 (MOLT-4) was > 5 µM, the IC50 (HMV-2 cell line) was > 5 µM and the IC50 (KE-37) was > 5 µM. The IC50 (LU-139) was 4.76 µM, the IC50 (RT-112) was > 5 µM and the IC50 (NCI-H2052) was > 5 µM. The IC50 (PSN1) was > 5 µM, the IC50 (HCC1395) was > 5 µM and the IC50 (U-251) was > 5 µM. The IC50 (COR-L23) was > 5 µM, the IC50 (EW-11) was > 5 µM and the IC50 (VA-ES-BJ) was > 5 µM. For the same molecule, the IC50 (PC-14) was > 5 µM, the IC50 (SAS) was > 5 µM and the IC50 (COLO-679) was > 5 µM. For the same molecule, the IC50 (CTV-1) was > 5 µM, the IC50 (GMS-10) was > 5 µM and the IC50 (NCI-H2170) was > 5 µM. The IC50 (DEL) was > 5 µM, the IC50 (DU-145) was > 5 µM and the IC50 (NCI-H2452) was > 5 µM. The IC50 (DOK) was > 5 µM, the IC50 (NCI-H810) was > 5 µM and the IC50 (NCI-H720) was 2.21 µM.

`CC(=O)O[C@@]12CO[C@@H]1C[C@H](O)[C@@]1(C)C(=O)[C@H](O)C3=C(C)[C@@H](OC(=O)[C@H](O)[C@@H](NC(=O)OC(C)(C)C)c4ccccc4)C[C@@](O)([C@@H](OC(=O)c4ccccc4)[C@H]21)C3(C)C` [DOCETAXEL] was tested, and the IC50 (LoVo) was > 0.01 µM, the IC50 (NCI-H226) was 0.00368 µM and the IC50 (HGC-27) was 0.000471 µM. For the same molecule, the IC50 (HN) was 0.000758 µM, the IC50 (GP5d) was 0.00296 µM and the IC50 (HT) was > 0.01 µM. The IC50 (OS-RC-2) was > 0.01 µM, the IC50 (GI-ME-N) was 0.00358 µM and the IC50 (SK-N-FI) was > 0.01 µM. For the same molecule, the IC50 (CAL-12T) was 0.00376 µM, the IC50 (RMG-I) was > 0.01 µM and the IC50 (GOTO) was 0.00227 µM. For the same molecule, the IC50 (C-33-A) was 0.00266 µM, the IC50 (OVCAR-3) was 0.00407 µM and the IC50 (TCC-SUP) was > 0.01 µM. The IC50 (NEC8) was 0.000561 µM, the IC50 (HuO-3N1) was 0.000302 µM and the IC50 (ASPC1) was 0.00683 µM. For the same molecule, the IC50 (CAL-51) was 0.00271 µM, the IC50 (IA-LM) was > 0.01 µM and the IC50 (KP-N-YN) was > 0.01 µM. For the same molecule, the IC50 (MEG-01) was > 0.01 µM, the IC50 (TE-9) was 0.000676 µM and the IC50 (NB7) was > 0.01 µM. The IC50 (NCI-H2030) was > 0.01 µM, the IC50 (KYSE-450) was 0.00143 µM and the IC50 (U2OS) was 0.00175 µM. The IC50 (MOLT-4) was 0.00471 µM, the IC50 (HMV-2 cell line) was > 0.01 µM and the IC50 (KE-37) was > 0.01 µM. For the same molecule, the IC50 (LU-139) was > 0.01 µM, the IC50 (RT-112) was 0.00119 µM and the IC50 (NCI-H2052) was 0.00727 µM. For the same molecule, the IC50 (PSN1) was 0.000581 µM, the IC50 (HCC1395) was > 0.01 µM and the IC50 (U-251) was 0.0025 µM. It also gave an IC50 (COR-L23) of 0.0022 µM, an IC50 (EW-11) of 0.00169 µM and an IC50 (VA-ES-BJ) of 0.000375 µM. The IC50 (PC-14) was 0.00209 µM, the IC50 (SAS) was 0.00134 µM and the IC50 (COLO-679) was > 0.01 µM. For the same molecule, the IC50 (CTV-1) was 0.00337 µM, the IC50 (GMS-10) was 0.000941 µM and the IC50 (NCI-H2170) was 0.00535 µM. The IC50 (DEL) was 0.00301 µM, the IC50 (DU-145) was > 0.01 µM and the IC50 (NCI-H2452) was 0.00216 µM. It also gave an IC50 (DOK) of 0.00294 µM, an IC50 (NCI-H810) of 0.00622 µM and an IC50 (NCI-H720) of 0.00058 µM.

In the case of `O=C1N=C(NCc2cccs2)S/C1=C\c1ccc2ncccc2c1`, the IC50 (LoVo) is reported as > 5 µM, the IC50 (NCI-H226) is reported as > 5 µM and the IC50 (HGC-27) is reported as > 5 µM. For the same molecule, the IC50 (HN) was > 5 µM, the IC50 (GP5d) was > 5 µM and the IC50 (HT) was > 5 µM. For the same molecule, the IC50 (OS-RC-2) was > 5 µM, the IC50 (GI-ME-N) was > 5 µM and the IC50 (SK-N-FI) was > 5 µM. The IC50 (CAL-12T) was > 5 µM, the IC50 (RMG-I) was > 5 µM and the IC50 (GOTO) was > 5 µM. For the same molecule, the IC50 (C-33-A) was > 5 µM, the IC50 (OVCAR-3) was > 5 µM and the IC50 (TCC-SUP) was > 5 µM. For the same molecule, the IC50 (NEC8) was 4.47 µM, the IC50 (HuO-3N1) was > 5 µM and the IC50 (ASPC1) was > 5 µM. For the same molecule, the IC50 (CAL-51) was > 5 µM, the IC50 (IA-LM) was > 5 µM and the IC50 (KP-N-YN) was > 5 µM. The IC50 (MEG-01) was > 5 µM, the IC50 (TE-9) was > 5 µM and the IC50 (NB7) was > 5 µM. For the same molecule, the IC50 (NCI-H2030) was > 5 µM, the IC50 (KYSE-450) was > 5 µM and the IC50 (U2OS) was > 5 µM. The IC50 (MOLT-4) was > 5 µM, the IC50 (HMV-2 cell line) was > 5 µM and the IC50 (KE-37) was > 5 µM. For the same molecule, the IC50 (LU-139) was > 5 µM, the IC50 (RT-112) was > 5 µM and the IC50 (NCI-H2052) was > 5 µM. For the same molecule, the IC50 (PSN1) was 4.11 µM, the IC50 (HCC1395) was > 5 µM and the IC50 (U-251) was 1.64 µM. For the same molecule, the IC50 (COR-L23) was > 5 µM, the IC50 (EW-11) was > 5 µM and the IC50 (VA-ES-BJ) was > 5 µM. The IC50 (PC-14) was > 5 µM, the IC50 (SAS) was > 5 µM and the IC50 (COLO-679) was > 5 µM. For the same molecule, the IC50 (CTV-1) was > 5 µM, the IC50 (GMS-10) was > 5 µM and the IC50 (NCI-H2170) was > 5 µM. For the same molecule, the IC50 (DEL) was > 5 µM, the IC50 (DU-145) was > 5 µM and the IC50 (NCI-H2452) was > 5 µM. The IC50 (DOK) was > 5 µM, the IC50 (NCI-H810) was > 5 µM and the IC50 (NCI-H720) was > 5 µM.
